pIC50: −log10 of the molar value.

For this experiment, the target named is T1, bovine-milk-derived xanthine oxidase (XOD) (Bos taurus, UniProt P80457).
T1 construct: from tissue; host or cells: bovine milk
T1 sequence (P80457 whole entry): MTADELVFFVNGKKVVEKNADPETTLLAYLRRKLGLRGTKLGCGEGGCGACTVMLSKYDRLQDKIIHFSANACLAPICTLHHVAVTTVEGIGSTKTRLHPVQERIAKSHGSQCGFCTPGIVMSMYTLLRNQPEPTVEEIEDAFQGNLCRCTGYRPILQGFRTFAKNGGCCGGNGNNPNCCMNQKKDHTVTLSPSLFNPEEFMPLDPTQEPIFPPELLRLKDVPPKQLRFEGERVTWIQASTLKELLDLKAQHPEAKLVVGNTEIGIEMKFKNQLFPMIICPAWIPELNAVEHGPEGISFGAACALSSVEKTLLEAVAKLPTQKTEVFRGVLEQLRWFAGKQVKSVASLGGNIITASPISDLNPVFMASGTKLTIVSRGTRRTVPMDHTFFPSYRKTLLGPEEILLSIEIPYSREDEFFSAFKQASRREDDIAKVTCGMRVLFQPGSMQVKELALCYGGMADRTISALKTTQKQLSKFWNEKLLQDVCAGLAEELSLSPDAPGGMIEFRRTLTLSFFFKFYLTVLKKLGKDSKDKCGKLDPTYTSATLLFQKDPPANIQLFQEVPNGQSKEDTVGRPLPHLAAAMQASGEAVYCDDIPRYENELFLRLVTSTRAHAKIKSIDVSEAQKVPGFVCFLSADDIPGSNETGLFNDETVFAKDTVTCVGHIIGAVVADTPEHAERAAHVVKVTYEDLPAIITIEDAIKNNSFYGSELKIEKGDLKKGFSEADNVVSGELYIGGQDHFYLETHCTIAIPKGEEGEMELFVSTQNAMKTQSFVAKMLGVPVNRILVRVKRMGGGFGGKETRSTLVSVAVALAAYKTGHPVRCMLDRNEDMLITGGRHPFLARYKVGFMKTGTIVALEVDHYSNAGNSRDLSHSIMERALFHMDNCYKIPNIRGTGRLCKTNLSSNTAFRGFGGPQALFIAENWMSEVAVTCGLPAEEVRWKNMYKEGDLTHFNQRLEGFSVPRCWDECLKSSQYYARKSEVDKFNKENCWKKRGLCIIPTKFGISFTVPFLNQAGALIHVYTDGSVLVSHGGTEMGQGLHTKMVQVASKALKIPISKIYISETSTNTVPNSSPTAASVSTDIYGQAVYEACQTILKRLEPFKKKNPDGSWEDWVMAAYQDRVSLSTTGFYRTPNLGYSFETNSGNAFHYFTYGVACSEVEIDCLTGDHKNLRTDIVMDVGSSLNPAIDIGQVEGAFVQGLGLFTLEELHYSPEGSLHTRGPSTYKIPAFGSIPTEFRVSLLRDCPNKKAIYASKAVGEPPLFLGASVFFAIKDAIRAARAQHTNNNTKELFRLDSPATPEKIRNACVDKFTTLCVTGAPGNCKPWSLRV
Kind of experiment: Xanthine oxidase inhibitory activity (inhibition of uricogenesis from xanthine, absorbance at 292 nm). Type of experiment: biochemical. To be noted: xanthine 100 μM, XOD 10 mU/ml, 50 mM phosphate buffer pH 7.4, 15 minutes, room temperature. As for the experimental part:
Test Example: Xanthine oxidase inhibitory activity
Xanthine (100 μM), bovine-milk-derived xanthine oxidase (XOD) (10 mU/ml), and a test compound were mixed in 50 mM phosphate buffer (pH 7.4), and the mixture was incubated for 15 minutes at room temperature. Transformation of xanthine into uric acid was measured as the change in absorbance (O.D.) at 292 nm, to thereby investigate the inhibitory effect of the test compound against uricogenesis.
The inhibition ratio against uricogenesis was calculated from the following equation, and a dose-response curve of each compound was obtained.
Inhibition ratio against uricogenesis (%)=100-[(D-DB)/T]×100
T: O.D. of a solution of "xanthine+XOD"
D: O.D. of a solution of "test compound+xanthine+XOD"
DB: O.D. of a solution of "test compound+XOD"
Usually pIC50 stands for −log10 of the IC50, conventionally taken in molar units. `CN(N=Cc1ccc(F)cc1)c1nc(=S)[nH]c2[nH]cnc12` [Compound 19b, 6-[2-(4-fluorobenzylidene)-1-methylhydrazino]-9H-purine-2(3H)-thione]: the pIC50 was 6.18.

`Fc1ccc(C=NNc2nc(=S)[nH]c3[nH]cnc23)cc1` [Compound 17a, 6-p-fluorobenzylidenehydrazino-9H-purine-2(3H)-thione] showed a pIC50 of 6.47. With `O=c1[nH]c2[nH]cnc2c2nnc(-c3ccc(Cl)cc3)n12` [Compound 11e, 3-p-chlorophenyl-7H-[1,2,4]triazolo[3,4-i]purine-5(6H)-one] the figure was 6.81; with `O=[N+]([O-])c1ccc(C=NNc2nc(=S)[nH]c3[nH]cnc23)cc1` [Compound 17c, 6-p-nitrobenzylidenehydrazino-9H-purine-2(3H)-thione], 5.93; with `S=c1[nH]c2[nH]cnc2c2nnc(-c3ccccc3)n12` [Compound 5c, 3-phenyl-7H-[1,2,4]triazolo[3,4-i]purine-5(6H)-thione], 5.53. Take `Clc1nc(NN=Cc2ccc3c(c2)OCO3)c2nc[nH]c2n1` [Compound 3g, 2-chloro-6-(3,4-methylenedioxybenzylidenehydrazino)-9H-purine]: the pIC50 is 5.94.

Compound `S=c1nc(NN=Cc2ccc3c(c2)OCO3)c2nc[nH]c2[nH]1` [Compound 17e, 6-(3,4-methylenedioxybenzylidenehydrazino)-9H-purine-2(3H)-thione] had a pIC50 of 6.63. In the case of `COc1ccc(C=NN(C)c2nc(=S)[nH]c3[nH]cnc23)cc1` [Compound 19a, 6-[2-(4-methoxybenzylidene)-1-methylhydrazino]-9H-purine-2(3H)-thione] it was 6.17; in that of `Fc1ccc(C=NNc2nc(Cl)nc3[nH]cnc23)cc1` [Compound 3c, 2-chloro-6-p-fluorobenzylidenehydrazino-9H-purine], 5.71; in that of `Clc1ccc(C=NNc2nc(Cl)nc3[nH]cnc23)cc1` [Compound 3d, 2-chloro-6-p-chlorobenzylidenehydrazino-9H-purine], 6.03. With `O=c1[nH]c2[nH]cnc2c2nnc(-c3ccccc3)n12` [Compound 11c, 3-phenyl-7H-[1,2,4]triazolo[3,4-i]purine-5(6H)-one] the figure was 5.59.

In the case of `Oc1ccc(C=NNc2nc(Cl)nc3[nH]cnc23)cc1` [Compound 3i, 2-chloro-6-p-hydroxybenzylidenehydrazino-9H-purine], the negative logarithm of the IC50 (pIC50) is 6.12. Regarding `Cc1nnc2c3nc[nH]c3[nH]c(=S)n12` [Compound 5b, 3-methyl-7H-[1,2,4]triazolo[3,4-i]purine-5(6H)-thione], the pIC50 was 5.10. The compound `CN(C)c1ccc(C=NNc2nc(=S)[nH]c3[nH]cnc23)cc1` [Compound 17b, 6-p-N,N-dimethylaminobenzylidenehydrazino-9H-purine-2(3H)-thione] showed a pIC50 of 6.06. Take `CN(C)c1ccc(C=NNc2nc(Cl)nc3[nH]cnc23)cc1` [Compound 3f, 2-chloro-6-p-N,N-dimethylaminobenzylidenehydrazino-9H-purine]: the pIC50 was 5.63. Take `COc1ccc(C=NNc2nc(Cl)nc3[nH]cnc23)cc1` [Compound 3e, 2-chloro-6-p-methoxybenzylidenehydrazino-9H-purine]: the pIC50 was 6.10. In the case of `Clc1nc(NN=Cc2ccccc2)c2nc[nH]c2n1` [Compound 3b, 6-benzylidenehydrazino-2-chloro-9H-purine] it was 5.57; in that of `COc1ccc(C=NNc2nc(=S)[nH]c3[nH]cnc23)cc1` [Compound 17d, 6-p-methoxybenzylidenehydrazino-9H-purine-2(3H)-thione], 6.01; in that of `COc1ccc(-c2nnc3c4nc[nH]c4[nH]c(=S)n23)cc1` [Compound 5d, 3-p-methoxyphenyl-7H-[1,2,4]triazolo[3,4-i]purine-5(6H)-thione], 5.52.
